Test results taken from US12371405B1, “Isoindol-sulfilimine compound and use as a sigma-2 receptor inhibitor thereof” (SHANGHAI UNIVERSITY OF MEDICINE AND HEALTH SCIENCES, priority 2024, dated 2025).

Legend:
sigma-2 receptor [1] = target: T1, sigma-2 receptor (Homo sapiens, UniProt Q5BJF2); assay: Sigma 2 binding assay (3H-DTG radioligand, cell membrane); settings: sigma-2R cell membrane, 2 hours at room temperature; for IC50: read-out: Sigma 2 Binding Assay Summary IC50; for Ki: read-out: Sigma 2 Binding Assay Summary Ki
T1 sequence (Q5BJF2 whole entry, species assumed): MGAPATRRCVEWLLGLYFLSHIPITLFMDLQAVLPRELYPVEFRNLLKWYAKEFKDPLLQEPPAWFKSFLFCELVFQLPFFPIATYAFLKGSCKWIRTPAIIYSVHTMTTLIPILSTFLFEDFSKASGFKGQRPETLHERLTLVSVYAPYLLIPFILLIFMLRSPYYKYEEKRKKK
Protocol: (§1) The pharmacodynamic test methods employed in this embodiment are those known to those skilled in the art; the sigma-2 receptor inhibitory activity assay kit employed in this embodiment is commercially available to those skilled in the art. sigmal/sigma-2 receptor affinity activity test:
(§2) In a 96-well plate, eight 4-fold dilutions of the test and reference compounds were made, and 1 μL of each compound was added to each well, and the wells were rearranged. The reference compound Haloperidol was added at a starting concentration of 1 μM, 1 μL of DMSO was added to the high signal control wells (High control), and 1 μL of Haloperidol was added to the low signal control wells (Low control) at a concentration of 200 μM (final concentration of 1 μM), and 100 μL of desired concentration of sigma-1R or sigma-2R cell membrane, diluted in 50 mM Tris-HCl (pH 7.4, Sigma, Cat: T1503-1 KG) was added to each well and 100 μL of desired concentration of 3H-DTG diluted in 50 mM Tris-HCl (pH 7.4) was added to each well, the 96-well plate was sealed, and incubated for 2 hours at room temperature on a shaker at 300 rpm. Simultaneously, GF/C filter plates (PerkinElmer, Cat: NET986250UC) were soaked with 0.3% PEI (Poly ethyleneimine, Sigma, Cat: P3143). After incubation, the cells were collected onto GF/C filter plates with a cell collector (PerkinElmer, model: C961961), washed 4 times with 50 mM Tris-HCl (pH 7.4) wash buffer, and then dried in an oven at 50° C. for 1 h. The bottom of the dried GF/C filter plates were sealed with a membrane, and 50 μL of scintillation solution was added into each well and sealed, and the cells were read by using a Microbeta (PerkinElmer, model: 2450 Microplate Counter). The percentage of activity was calculated using Microsoft Excel software with the formula: % Activity=100×(Sample RawValue−High Control Average)/(Low Control Average-High Control Average), using GraphPad Prism 5 data analysis software. The Dose-response-Stimulation-log [antagonist] vs. response-Variable slope model was selected for fitting analysis to obtain the IC50 value of each tested sample, and the results are shown in Table 1.

sigma-1 receptor = sigma-1 receptor (Homo sapiens, UniProt Q99720); assay: Sigma1 binding assay (3H-DTG radioligand, cell membrane); settings: sigma-1R cell membrane, 2 hours at room temperature; for IC50: read-out: Sigma1 Binding Assay Summary IC50; for Ki: read-out: Sigma1 Binding Assay Summary Ki
sigma-1 receptor, sequence (Q99720 whole entry): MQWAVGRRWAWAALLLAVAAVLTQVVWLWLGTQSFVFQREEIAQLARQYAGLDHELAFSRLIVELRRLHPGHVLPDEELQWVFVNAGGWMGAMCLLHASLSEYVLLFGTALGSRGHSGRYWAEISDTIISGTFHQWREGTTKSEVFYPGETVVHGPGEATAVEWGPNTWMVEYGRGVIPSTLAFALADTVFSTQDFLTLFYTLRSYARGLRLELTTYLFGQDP
Protocol: as §1, §2

[2] = tested on: cerebrospinal fluid β-amyloid (aβ); settings: at 1 h after administration; cited from earlier work
[3] = cited from earlier work
sigma-2 receptor [4] = target: T1, sigma-2 receptor; settings: cited from earlier work

SMILES	IC50 (sigma-2 receptor [1])	Ki (sigma-2 receptor [1])	IC50 (sigma-1 receptor)	Ki (sigma-1 receptor)	concentration of cerebrospinal fluid β-amyloid (aβ) [2]	oral bioavailability [3]	sigma-1 and sigma-2 receptor selectivity (sigma-2 receptor [4])
CCC(=O)N=S(=O)(CC)c1ccc2c(c1)CN(C(C)(C)CCc1ccc(O)c(OC(C)(C)C)c1)C2 (stereo not shown) [Compound 5, N-((2-(4-(3-(tert-butoxy)-4-hydroxyphenyl)-2-methylbutan-2-yl)isoindol-5-yl)(ethyl)(oxo)-16-thioimido) propionamide]	> 100 nM	> 100 nM	> 1000 nM	> 1000 nM	–	–	–
CC(=O)N=S(=O)(CCCCF)c1ccc2c(c1)CN(C(C)(C)CCc1ccc(O)c(OC(C)(C)C)c1)C2 (stereo not shown) [Compound 15, N-((2-(4-(3-(tert-butoxy)-4-hydroxyphenyl)-2-methylbutan-2-yl)isoindol-5-yl)(fluoro-butyl)(oxo)-26-thioimido)acetamide]	> 500 nM	> 500 nM	> 5000 nM	> 5000 nM	–	–	–
CCCCS(=N)(=O)c1ccc2c(c1)CN(C(C)(C)CCc1ccc(O)c(OC(C)(C)C)c1)C2 (stereo not shown) [Compound 19]	> 100 nM	> 100 nM	> 1000 nM	> 1000 nM	–	–	–
CC(C)(C)Oc1cc(CCC(C)(C)N2Cc3ccc(S(C)(=O)=O)cc3C2)ccc1O [CT1812]	–	–	–	–	increase	poor	poor
CCCCS(=O)(=NC(=O)CCC)c1ccc2c(c1)CN(C(C)(C)CCc1ccc(O)c(OC(C)(C)C)c1)C2 (stereo not shown) [Compound 12, N-((2-(4-(3-(tert-butoxy)-4-hydroxyphenyl)-2-methylbutan-2-yl)isoindol-5-yl)(butyl)(oxo)-26-thiimido) butyramide]	> 500 nM	> 500 nM	> 5000 nM	> 5000 nM	–	–	–
CCCC(=O)N=S(=O)(CC)c1ccc2c(c1)CN(C(C)(C)CCc1ccc(O)c(OC(C)(C)C)c1)C2 (stereo not shown) [Compound 6, N-((2-(4-(3-(tert-butoxy)-4-hydroxyphenyl)-2-methylbutan-2-yl)isoindol-5-yl)(ethyl)(oxo)-26-thioimido) butyramide]	> 500 nM	> 500 nM	> 5000 nM	> 5000 nM	–	–	–
CC(=O)N=S(=O)(CCCF)c1ccc2c(c1)CN(C(C)(C)CCc1ccc(O)c(OC(C)(C)C)c1)C2 (stereo not shown) [Compound 14]	> 500 nM	> 500 nM	> 5000 nM	> 5000 nM	–	–	–
CC(C)(C)Oc1cc(CCC(C)(C)N2Cc3ccc(S(=N)(=O)CCCCF)cc3C2)ccc1O (stereo not shown) [Compound 22]	> 500 nM	> 500 nM	> 5000 nM	> 5000 nM	–	–	–
CCCS(=N)(=O)c1ccc2c(c1)CN(C(C)(C)CCc1ccc(O)c(OC(C)(C)C)c1)C2 (stereo not shown) [Compound 18]	> 500 nM	> 500 nM	> 5000 nM	> 5000 nM	–	–	–
CCS(=N)(=O)c1ccc2c(c1)CN(C(C)(C)CCc1ccc(O)c(OC(C)(C)C)c1)C2 (stereo not shown) [Compound 17]	< 100 nM	< 100 nM	> 100 nM	> 100 nM	–	–	–
CCCC(=O)N=S(C)(=O)c1ccc2c(c1)CN(C(C)(C)CCc1ccc(O)c(OC(C)(C)C)c1)C2 (stereo not shown) [Compound 3, N-((2-(4-(3-(tert-butoxy)-4-hydroxyphenyl)-2-methylbutan-2-yl)isoindol-5-yl)(methyl)(oxo)-26-thioimido) butanamide]	> 500 nM	> 500 nM	> 5000 nM	> 5000 nM	–	–	–
CCCS(=O)(=NC(C)=O)c1ccc2c(c1)CN(C(C)(C)CCc1ccc(O)c(OC(C)(C)C)c1)C2 (stereo not shown) [Compound 7, N-((2-(4-(3-(tert-butoxy)-4-hydroxyphenyl)-2-methylbutan-2-yl)isoindol-5-yl)(propyl)(oxo)-26-thioimino)acetamide]	> 500 nM	> 500 nM	> 5000 nM	> 5000 nM	–	–	–
CC(=O)N=S(C)(=O)c1ccc2c(c1)CN(C(C)(C)CCc1ccc(O)c(OC(C)(C)C)c1)C2 (stereo not shown) [Compound 1, N-((2-(4-(3-(tert-butoxy)-4-hydroxyphenyl)-2-methylbutan-2-yl)isoindol-5-yl)(methyl)(oxo)-λ6-thioimido)acetamide]	> 100 nM	> 100 nM	> 1000 nM	> 1000 nM	–	–	–
CC(C)(C)Oc1cc(CCC(C)(C)N2Cc3ccc(S(=N)(=O)CCCF)cc3C2)ccc1O (stereo not shown) [Compound 21]	> 500 nM	> 500 nM	> 5000 nM	> 5000 nM	–	–	–
CCS(=O)(=NC(C)=O)c1ccc2c(c1)CN(C(C)(C)CCc1ccc(O)c(OC(C)(C)C)c1)C2 (stereo not shown) [Compound 4, N-((2-(4-(3-(tert-butoxy)-4-hydroxyphenyl)-2-methylbutan-2-yl)isoindol-5-yl)(ethyl)(oxo)-26-thioimido)acetamide]	> 100 nM	> 100 nM	> 1000 nM	> 1000 nM	–	–	–
CCCCS(=O)(=NC(=O)CC)c1ccc2c(c1)CN(C(C)(C)CCc1ccc(O)c(OC(C)(C)C)c1)C2 (stereo not shown) [Compound 11, N-((2-(4-(3-(tert-butoxy)-4-hydroxyphenyl)-2-methylbutan-2-yl)isoindol-5-yl)(butyl)(oxo)-26-thioimido) propionamide]	> 500 nM	> 500 nM	> 5000 nM	> 5000 nM	–	–	–
CCCC(=O)N=S(=O)(CCC)c1ccc2c(c1)CN(C(C)(C)CCc1ccc(O)c(OC(C)(C)C)c1)C2 (stereo not shown) [Compound 9, N-((2-(4-(3-(tert-butoxy)-4-hydroxyphenyl)-2-methylbutan-2-yl)isoindol-5-yl)(propyl)(oxo)-26-thioimido) butanamide]	> 500 nM	> 500 nM	> 5000 nM	> 5000 nM	–	–	–
CC(=O)N=S(=O)(CF)c1ccc2c(c1)CN(C(C)(C)CCc1ccc(O)c(OC(C)(C)C)c1)C2 (stereo not shown) [Compound 13, N-((2-(4-(3-(tert-butoxy)-4-hydroxyphenyl)-2-methylbutan-2-yl)isoindol-5-yl)(fluoromethyl)(oxo)-26-thioimido)acetamide]	> 100 nM	> 100 nM	> 1000 nM	> 1000 nM	–	–	–
CCCS(=O)(=NC(=O)CC)c1ccc2c(c1)CN(C(C)(C)CCc1ccc(O)c(OC(C)(C)C)c1)C2 (stereo not shown) [Compound 8, N-((2-(4-(3-(tert-butoxy)-4-hydroxyphenyl)-2-methylbutan-2-yl)isoindol-5-yl)(propyl)(oxo)-26-thioimido) propionamide]	> 500 nM	> 500 nM	> 5000 nM	> 5000 nM	–	–	–
CCC(=O)N=S(C)(=O)c1ccc2c(c1)CN(C(C)(C)CCc1ccc(O)c(OC(C)(C)C)c1)C2 (stereo not shown) [Compound 2, N-((2-(4-(3-(tert-butoxy)-4-hydroxyphenyl)-2-methylbutan-2-yl)isoindol-5-yl)(methyl)(oxo)-26-thioimido) propionamide]	> 100 nM	> 100 nM	> 1000 nM	> 1000 nM	–	–	–
CC(C)(C)Oc1cc(CCC(C)(C)N2Cc3ccc(S(C)(=N)=O)cc3C2)ccc1O (stereo not shown) [Compound 16]	< 100 nM	< 100 nM	> 100 nM	> 100 nM	–	–	–
CC(C)(C)Oc1cc(CCC(C)(C)N2Cc3ccc(S(=N)(=O)CF)cc3C2)ccc1O (stereo not shown) [Compound 20]	< 100 nM	< 100 nM	> 100 nM	> 100 nM	–	–	–
CCCCS(=O)(=NC(C)=O)c1ccc2c(c1)CN(C(C)(C)CCc1ccc(O)c(OC(C)(C)C)c1)C2 (stereo not shown) [Compound 10]	> 500 nM	> 500 nM	> 5000 nM	> 5000 nM	–	–	–
